The term ΔTm denotes the shift of the melting midpoint relative to a reference.

This is an account of results in article PMC6269716 (2013).

The subject of assay [1] is DK66 (DNA, duplex) CGCGAATTCGCG
Briefly: ESI-MS peak intensities. To be noted: NH4+ (150 mM ammonium acetate), 15% methanol added before injection, 5 µM DNA.

Assay [2] has as its system T Loop (DNA, hairpin, hexaethyleneglycol (HEG) linker between nucleotides 10 and 11 as hairpin loop) TATAGCTATATATAGCTATA
Kind of assay: FRET melting. The settings on record: K+ (60 mM); potassium cacodylate pH 7.4; 1 µM compound; 200 nM DNA.

Assay [3] relates to F21T (HTelo-21, FRET) (DNA, G4) GGGTTAGGGTTAGGGTTAGGG
Briefly: FRET melting. The settings on record: K+ (60 mM); potassium cacodylate pH 7.4; 1 µM compound; 200 nM DNA.

Assay [4] deals with CKIT1 (c-kit-1, FRET) (DNA, G4) AGAGGGAGGGCGCTGGGAGGAGGGGCT
Briefly: FRET melting. To be noted: K+ (60 mM); potassium cacodylate pH 7.4; 1 µM compound; 200 nM DNA.

The subject of assay [5] is HTelo21 (DNA, G4) GGGTTAGGGTTAGGGTTAGGG
Kind of assay: ESI-MS peak intensities. The settings on record: NH4+ (150 mM ammonium acetate); 15% methanol added before injection; 5 µM DNA; site 1 of 2.

The test system of assay [6] is BCL2 (FRET) (DNA, G4) GGGCGCGGGAGGAAGGGGGCGGG
Kind of assay: FRET melting. To be noted: K+ (60 mM); potassium cacodylate pH 7.4; 1 µM compound; 200 nM DNA.

`CN(C)CCCCCC(=O)c1ccc2c(c1)C(CCCCN(C)C)c1cc(C(=O)CCCCCN(C)C)ccc1O2`: the “Log K1” value in assay [1] (site 1 of 2) is 3.6 ± 0.3; in assay [5], 5.2 ± 0.4. Also, the ΔTm in assay [2] amounted to 2.2 ± 0.1 °C; in assay [3], 11.9 ± 0.1 °C; in assay [4], 7.9 ± 0.1 °C; in assay [6] it was 4.8 ± 0.1 °C.

Take `CN(C)CCCCCC(=O)c1ccc2c(c1)Cc1cc(C(=O)CCCCCN(C)C)ccc1O2`: the “Log K1” value in assay [1] (site 1 of 2) was determined as 3.4 ± 0.2; in assay [5], 4.6 ± 0.1.

On to `CN(C)CCCCCC(=O)c1ccc2oc3ccc(C(=O)CCCCCN(C)C)cc3c(=O)c2c1`, for which the “Log K1” value is given as 3.3 ± 0.2 in assay [1] (site 1 of 2) and 4.0 ± 0.1 in assay [5].

For `CN(C)CCCCOc1ccc2c(=O)c3ccc(OCCCCN(C)C)cc3oc2c1`, the “Log K1” value was 3.6 ± 0.1 in assay [1] (site 1 of 2) and 4.7 ± 0.1 in assay [5].

Consider `CN1CCN(CCCCCC(=O)c2ccc3c(c2)Cc2cc(C(=O)CCCCCN4CCN(C)CC4)ccc2O3)CC1`, for which the “Log K1” value in assay [1] (site 1 of 2) is reported as 3.7 ± 0.1; in assay [5], 4.4 ± 0.1.

As to `CN1CCN(CCCCCC(=O)c2ccc3oc4ccc(C(=O)CCCCCN5CCN(C)CC5)cc4c(=O)c3c2)CC1`, the entries for the “Log K1” value in assay [1] (site 1 of 2) and in assay [5] were 1.8 ± 0.2 and 4.1 ± 0.1, respectively.

In the case of `CN1CCN(CCCCOc2ccc3c(=O)c4ccc(OCCCCN5CCN(C)CC5)cc4oc3c2)CC1`, the “Log K1” value was 3.5 ± 0.1 in assay [1] (site 1 of 2) and 4.3 ± 0.1 in assay [5].

As to `O=C(CCCCCN1CCCCC1)c1ccc2c(c1)C(CCCC1c3cc(C(=O)CCCCCN4CCCCC4)ccc3Oc3ccc(C(=O)CCCCCN4CCCCC4)cc31)c1cc(C(=O)CCCCCN3CCCCC3)ccc1O2`, the “Log K1” value is recorded as 3.9 ± 0.1 in assay [1] (site 1 of 2) and 5.8 ± 0.1 in assay [5].

As to `O=C(CCCCCN1CCCCC1)c1ccc2c(c1)Cc1cc(C(=O)CCCCCN3CCCCC3)ccc1O2`, the results for the “Log K1” value in assay [1] (site 1 of 2) and in assay [5] were 3.8 ± 0.2 and 4.7 ± 0.1, respectively. The ΔTm in assay [2] worked out at 0.4 ± 0.1 °C; in assay [3], 1.3 ± 0.1 °C; in assay [4], 1.0 ± 0.1 °C; in assay [6] it was 0.7 ± 0.1 °C.

Consider `O=C(CCCCCN1CCCCC1)c1ccc2oc3ccc(C(=O)CCCCCN4CCCCC4)cc3c(=O)c2c1`, for which the “Log K1” value was 3.7 ± 0.1 in assay [1] (site 1 of 2) and 4.4 ± 0.1 in assay [5].

In the case of `O=c1c2ccc(OCCCCN3CCCCC3)cc2oc2cc(OCCCCN3CCCCC3)ccc12`, the “Log K1” value worked out at 3.4 ± 0.1 in assay [1] and 4.7 ± 0.1 in assay [5].
